Measured values as given in PubChem BioAssay (NCI).
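Cultured in 96-well plates, cells were exposed to test compound for 48 hours across five concentrations. GI50 is the concentration that inhibits growth by half. TGI: total growth inhibition.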

Experiments:
Assay in all cases: inhibition of tumour cell growth, NCI panel, 48 h
NCI-H460 lung = tested on: NCI-H460 lung
OVCAR-8 ovarian = tested on: OVCAR-8 ovarian
MDA-MB-435 = tested on: MDA-MB-435
NCI-H522 lung = tested on: NCI-H522 lung
COLO 205 colon = tested on: COLO 205 colon
UO-31 renal = tested on: UO-31 renal
M14 melanoma = tested on: M14 melanoma
786-0 renal = tested on: 786-0 renal

Structure (SMILES)	GI50 (NCI-H460 lung) [µM]	TGI (NCI-H460 lung) [µM]	GI50 (OVCAR-8 ovarian) [µM]	TGI (OVCAR-8 ovarian) [µM]	GI50 (MDA-MB-435) [µM]	TGI (MDA-MB-435) [µM]	GI50 (NCI-H522 lung) [µM]	TGI (NCI-H522 lung) [µM]	GI50 (COLO 205 colon) [µM]	TGI (COLO 205 colon) [µM]	GI50 (UO-31 renal) [µM]	TGI (UO-31 renal) [µM]	GI50 (M14 melanoma) [µM]	TGI (M14 melanoma) [µM]	GI50 (786-0 renal) [µM]	TGI (786-0 renal) [µM]
CNC(=O)c1c(NC(=O)c2cccc(C(F)(F)F)c2)sc2c1CCC(=O)C2	0.365	> 100	0.324	> 100	0.544	3.1	0.075	0.549	0.382	1.48	0.197	0.77	0.417	4	0.447	> 36.8
CCOC(=O)c1cc2c(n1Cc1cc(OC)cc(OC)c1)-c1oncc1CCC2	0.071	> 100	0.169	> 100	0.0313	0.112	0.0194	0.0682	0.0647	6.15	0.392	> 100	0.057	> 100	0.104	> 100
CN(C)/C=C/c1nnnn1-c1ccc(Cl)cc1	16.9	37.3	11.2	64.4			25.2	64.8	28.2	58.7	23.5	84.8	5.21	44.1	14.8	56.3
Cc1ccc2c[c]1[Hg][CH2]COS2(=O)=O	> 100	> 100	16	29.5	24.7	39.4	22.6	42.8	18.8	32.8	17.3	31	17.4	31.2	18.1	32
C=C1C(=O)O[C@H]2[C@H]1CC/C(CNS(=O)(=O)c1ccc3ccccc3c1)=C\CC[C@@]1(C)O[C@@H]21	8.14	24.3	3.36	12.6	2.35	7.37	0.444	1.8	1.16	2.69	1.34	2.78	1.57	3.49	1.62	3.22
O=C(Nc1ccc(Cl)cc1)c1cc2c(cc1O)[nH]c1ccccc12	3.11	10.2	3.25	12.9	2.12	5.85	2.88	10.6	2.39	5.53	2.86	12.9	2.85	10.4	2.76	7.54
NC1C2C(CC(=O)O)OCC=C3CN4CCC1(C(=O)C(=O)O)C4CC32 (stereo not given)		> 100		> 100		> 100		> 100		> 100		> 100		> 100		> 100
O=CN1N=C(c2ccc(Nc3ccnc4cc(Cl)ccc34)cc2)CC1c1ccccc1 (stereo not given)	3.96	> 100	4.53	> 100	1.59	4.67			2.21	6.15	3.81	> 100	4.12	31	3.36	12.2
CC/C=C\C/C=C\C[C@H](O)C/C=C1/C(=O)C=C[C@H]1C/C=C\CCC(=O)OC	> 8.25	> 8.25	2.51	> 8.25	2.35	> 8.25	1.39	3.42	3.87	> 8.25	7.58	> 8.25	6.11	> 8.25	3.53	> 8.25
COc1cc2c(c(OC)c1OC)-c1ccc(NNC(=S)N(Cc3cccc(C[N+](Cc4cccc(CNC56CC7CC(CC(C7)C5)C6)c4)(Cc4cccc(CNC56CC7CC(CC(C7)C5)C6)c4)Cc4cccc(CN(C(=S)NNc5ccc6c(cc5=O)[C@@H](NC(C)=O)CCc5cc(OC)c(OC)c(OC)c5-6)C56CC7CC(CC(C7)C5)C6)c4)c3)C34CC5CC(CC(C5)C3)C4)c(=O)cc1[C@@H](NC(C)=O)CC2 (stereo not given in full)	1.22	3.79	2.03	7.49	0.779	3.5	0.699	1.88	0.683	1.52	2.16	7.2	0.822	2.26	1.3	5.28
COC(=O)Nc1nc2ccc(Oc3ccc(NC(=O)Nc4cccc(Br)c4)cc3)cc2[nH]1	1.27	> 13.5	4.32	> 20	0.0839	0.46	0.351	2.7	1.48	7	> 16.6	> 25	2.12	> 17.8	3.9	> 24.1
NC(=O)C(Br)CBr (stereo not given)	3.56	13.5	1.8	4.44	1.74	4.33			1.03	2.56	2.55	12.7	1.63	3.02	5.65	16.1
CC1=C(C(=O)Nc2ccc3[nH]ncc3c2)C(c2ccc(F)cc2)NC(=O)N1 (stereo not given)	> 25	> 25	> 25	> 25	> 25	> 25	> 18.2	> 25	> 25	> 25	> 17.5	> 25	> 25	> 25	> 25	> 25
COc1cc2c(cc1OCCCOC1=C=C=C(c3ccc4c(c3)c3cc(-c5ccc(OCCCOc6cc7c(cc6OC)C(=O)N6CCC[C@H]6C=N7)cc5)ccc3n4S(=O)(=O)c3ccc(C)cc3)C=C1)N=C[C@@H]1CCCN1C2=O	1.38	7.99	1.54	> 17	2.07	5.25	3.53	39.6	1.9	9.78	3.21	11.4	1.58	6.93	1.38	4.12
CC1=C(SCc2ccccc2)C(=O)c2ccccc2C1=O		51.6		38.8		27.9				38.9						30.9
